US20260242759A1, “GQ/11 Protein Peptidomimetics” (Vrije Universiteit Brussel, priority 2022, published 2026)
Non-standard residues stand in square brackets, D forms with d. Residues, ends and D or L forms follow the SMILES beside them. Cha = N[C@@H](CC1CCCCC1)C(=O)O

Experiments:
[1] = target: T1, human ghrelin receptor (GHSR) (Homo sapiens, UniProt Q92847, C146S/C304S); test: Bimane fluorescence assay on purified ghrelin receptor in nanodiscs; format: biochemical; details: bimane labeled GHSR, in presence of JMV1843
T1 construct: integrin α5 fragment (N); polyhistidine tag (C); made in house; host or cells: E. coli BL21(DE3)
T1 sequence (Q92847 whole entry C146S/C304S, the tested form may be a part): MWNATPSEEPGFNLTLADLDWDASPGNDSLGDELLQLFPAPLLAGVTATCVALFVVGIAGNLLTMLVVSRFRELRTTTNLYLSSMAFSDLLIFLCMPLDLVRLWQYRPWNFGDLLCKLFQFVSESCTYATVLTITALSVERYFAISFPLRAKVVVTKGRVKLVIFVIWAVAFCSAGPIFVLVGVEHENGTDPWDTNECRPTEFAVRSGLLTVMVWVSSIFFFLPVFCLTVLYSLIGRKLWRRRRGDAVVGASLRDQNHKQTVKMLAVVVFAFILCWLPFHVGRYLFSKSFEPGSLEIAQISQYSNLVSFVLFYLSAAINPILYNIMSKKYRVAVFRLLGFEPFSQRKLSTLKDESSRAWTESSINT
Description: Another assay that can be used to analyse conformational changes associated with GPCR activation and/or to identify G protein peptidomimetics that are capable of stabilizing a GPCR in an active conformational state is the bimane fluorescence assay or bimane assay. This assay works through labelling of a cysteine residue in the lower part of the TM6 of a GPCR with a bimane-fluorophore (monobromobimane (MB)). Binding of an agonist to the GPCR causes a conformational change and outward movement of TM6 that places bimane in a more solved-exposed position, which will alter its maximum emission wavelength. In particular, increasing concentrations of agonist result in a concentration-dependent red-shift of the maximum emission wavelength (λmax) of the bimane-fluorophore probe. In the presence of a G protein or an active state stabilizing G protein peptidomimetic λmax may increase further. For example, a bimane labelled ghrelin receptor (such as a cysmin mutant (i.e. mutant with minimal cysteines) of human ghrelin receptor (also referred to herein as growth hormone secretagogue receptor (GHSR) (e.g. the mutant as described in Damian et al. (2021) wherein monobromobimane (MB) fluorescent probe is attached to Cys^255) and ghrelin receptor agonist JMV1843 may be used.
The bimane fluorescence assays on the ghrelin receptor were performed as described in Damian et al. (2021. Nat. Commun. 12:1-15). Briefly, E. coli bacteria (BL21(DE3)) were transformed with a vector encoding the human ghrelin receptor with an integrin α5 fragment at the N-terminus and a polyhistidine tag at the C-terminus. The receptors were then purified and reconstituted into lipidated nanodiscs. The monobromobimane labeling was performed by incubating the receptors, with a unique reactive cysteine at position 255, during 16 h in the dark at 4° C. and in the presence of 0.1 mM tris(2-carboxyethyl)phosphine (TCEO). The reaction was terminated with 5 mM L-cysteine and unreacted monobromobimane was removed using a Zeba™ Spin desalting column.
For the fluorescence assay, the labeled receptor was incubated during 2 h at 20° C. (0.2 μM final concentration), in the absence or presence of the full agonist JMV1843 (20 μM) and in the absence or presence of either the peptidomimetics at varying molar ratios or the purified Gαqβ1γ2 heterotrimer, at a 1:5 receptor-to-G protein molar ratio. Afterwards, the fluorescence experiments were performed on a Horiba Fluoromax-4 TCSP spectrofluorimeter. For each scan, the excitation wavelength (λexc) was set at 380 nm and emission was collected between 440 nm and 520 nm.
The bimane assay is used on GPCRs to detect conformational changes associated with receptor activation. This assay functions through the labelling of a cysteine, which is one of the least frequently occurring amino acids in proteins. Additionally, the majority of the extracellular cysteines form disulfide bonds, which, together with the transmembrane cysteines, are inert to thiol-reactive reagents. Additionally, some of the intracellular cysteines in the C-terminal tail may carry post-translational modifications which reduces the number of reactive cysteines in the receptor (Tian et al. 2017. Chem. Rev. 117:186-245). For GHSR, the remaining reactive cysteine residues C146 (ICL2) and C304 (extracellular end of TM7) were replaced by serines (cysmin mutant, i.e. mutant with minimal cysteines), to allow the monobromobimane (MB) fluorescent probe to be specifically attached to Cys255 in the lower part of TM6 (FIG. 5a) (Damian et al. 2021). In this assay, bimane is chosen because of its small size and sensitivity to the polarity of its environment (Yao et al. 2006. Nat Chem. Biol. 2:417-422). Binding of a ligand to the receptor, causes a conformational change and outward movement of TM6 that places bimane in a more solvent-exposed position, which alters its maximum emission wavelength. […]

[2] = Solubility in aqueous buffer; details: aqueous buffer for RLA

Row | Molecule | conformational change in the receptor [1] | solubility in aqueous buffer [2]
1 | CC[C@H](C)[C@H](NC(=O)[C@H](CC(=O)O)NC(=O)[C@H](CCCCN)NC(=O)[C@H](CS)NC(=O)[C@H](CC(=O)O)NC(=O)[C@H](CC(N)=O)NC(=O)[C@H](Cc1ccccc1)NC(C)=O)C(=O)N[C@H](C(=O)N[C@@H](CC(C)C)C(=O)N[C@@H](CCC(N)=O)C(=O)N[C@@H](CCSC)C(=O)N[C@@H](CC(N)=O)C(=O)N[C@@H](CC(C)C)C(=O)N[C@@H](CCCNC(=N)N)C(=O)N[C@@H](CCC(=O)O)C(=O)N[C@@H](Cc1ccc(O)cc1)C(=O)N[C@@H](CC(N)=O)C(=O)N[C@@H](CC1CCCCC1)C(=O)N[C@H](C(=O)O)C(C)C)[C@@H](C)CC [SBL-GQ-09] (Ac-FNDCKDIILQMNLREYN[Cha]V-OH) | not able to induce a conformational change | not soluble
2 | Ac-FNDCKDIILQMNLREYNLV-OH [SBL-GQ-07] | not able to induce a conformational change | not soluble
